Test results reported in ChEMBL document CHEMBL5104164, “Design, synthesis, and biological evaluation of pyrrolopyrimidine derivatives as novel Bruton's tyrosine kinase (BTK) inhibitors” (Eur J Med Chem, 2022).
Activity calls are given as the source filed them. No cut-off for these calls is given here.

Columns and labels:
[1] = biological target: T1, Tyrosine-protein kinase BTK (Homo sapiens, UniProt Q06187); experiment: Inhibition of BTK (unknown origin) assessed as residual percent of control at 1 uM measured by DiscoverX kinome scan assay relative to control
T1 sequence (Q06187 whole entry): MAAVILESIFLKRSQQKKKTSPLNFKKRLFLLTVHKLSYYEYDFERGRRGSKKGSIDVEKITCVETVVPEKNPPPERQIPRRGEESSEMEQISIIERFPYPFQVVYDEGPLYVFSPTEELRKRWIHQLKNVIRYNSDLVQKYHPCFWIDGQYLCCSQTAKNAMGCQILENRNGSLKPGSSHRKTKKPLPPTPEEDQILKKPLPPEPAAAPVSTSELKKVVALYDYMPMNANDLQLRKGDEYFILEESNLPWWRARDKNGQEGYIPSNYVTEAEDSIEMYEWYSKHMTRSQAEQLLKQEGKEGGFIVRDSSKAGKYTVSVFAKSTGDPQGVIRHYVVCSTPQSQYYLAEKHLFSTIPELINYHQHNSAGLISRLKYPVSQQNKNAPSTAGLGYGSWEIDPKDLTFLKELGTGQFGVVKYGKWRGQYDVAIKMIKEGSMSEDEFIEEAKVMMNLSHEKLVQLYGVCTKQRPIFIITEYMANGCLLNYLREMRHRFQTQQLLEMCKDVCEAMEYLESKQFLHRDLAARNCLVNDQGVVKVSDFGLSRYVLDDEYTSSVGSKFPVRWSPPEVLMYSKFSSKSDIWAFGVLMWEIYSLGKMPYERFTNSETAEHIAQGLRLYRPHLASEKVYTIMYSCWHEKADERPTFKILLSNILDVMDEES

[2] = Mutagenicity in Salmonella typhimurium TA1537 at 1.5 to 1000 ug per plate in presence of liver microsomes by AMES test; assay type: toxicity, Salmonella enterica subsp. enterica serovar Typhimurium; conditions: dose 1.5-1000 µg
TMD8 [3] = experiment: Induction of apoptosis in human TMD8 cells assessed as apoptotic cells 1000 nM incubated for 72 hrs by AnnexinV-FITC/propidium iodide staining based flow cytometric analysis; assay type: functional
TMD8 [4] = experiment: Cell cycle arrest in human TMD8 cells assessed as accumulation of cells at S phase at 10 nM after 48 hrs by propidium iodide staining based flow cytometric analysis (reference value: 49.3%); assay type: functional
DOHH-2 = experiment: Antiproliferative activity against human DOHH-2 cells incubated for 72 hrs by CellTiter-Glo assay; assay type: functional, cell-based; conditions: DOHH-2, 72 h
[5] = biological target: Voltage-gated inwardly rectifying potassium channel KCNH2 (Homo sapiens, UniProt Q12809); experiment: Inhibition of hERG; assay type: toxicity
Sequence of Voltage-gated inwardly rectifying potassium channel KCNH2 (Q12809 whole entry): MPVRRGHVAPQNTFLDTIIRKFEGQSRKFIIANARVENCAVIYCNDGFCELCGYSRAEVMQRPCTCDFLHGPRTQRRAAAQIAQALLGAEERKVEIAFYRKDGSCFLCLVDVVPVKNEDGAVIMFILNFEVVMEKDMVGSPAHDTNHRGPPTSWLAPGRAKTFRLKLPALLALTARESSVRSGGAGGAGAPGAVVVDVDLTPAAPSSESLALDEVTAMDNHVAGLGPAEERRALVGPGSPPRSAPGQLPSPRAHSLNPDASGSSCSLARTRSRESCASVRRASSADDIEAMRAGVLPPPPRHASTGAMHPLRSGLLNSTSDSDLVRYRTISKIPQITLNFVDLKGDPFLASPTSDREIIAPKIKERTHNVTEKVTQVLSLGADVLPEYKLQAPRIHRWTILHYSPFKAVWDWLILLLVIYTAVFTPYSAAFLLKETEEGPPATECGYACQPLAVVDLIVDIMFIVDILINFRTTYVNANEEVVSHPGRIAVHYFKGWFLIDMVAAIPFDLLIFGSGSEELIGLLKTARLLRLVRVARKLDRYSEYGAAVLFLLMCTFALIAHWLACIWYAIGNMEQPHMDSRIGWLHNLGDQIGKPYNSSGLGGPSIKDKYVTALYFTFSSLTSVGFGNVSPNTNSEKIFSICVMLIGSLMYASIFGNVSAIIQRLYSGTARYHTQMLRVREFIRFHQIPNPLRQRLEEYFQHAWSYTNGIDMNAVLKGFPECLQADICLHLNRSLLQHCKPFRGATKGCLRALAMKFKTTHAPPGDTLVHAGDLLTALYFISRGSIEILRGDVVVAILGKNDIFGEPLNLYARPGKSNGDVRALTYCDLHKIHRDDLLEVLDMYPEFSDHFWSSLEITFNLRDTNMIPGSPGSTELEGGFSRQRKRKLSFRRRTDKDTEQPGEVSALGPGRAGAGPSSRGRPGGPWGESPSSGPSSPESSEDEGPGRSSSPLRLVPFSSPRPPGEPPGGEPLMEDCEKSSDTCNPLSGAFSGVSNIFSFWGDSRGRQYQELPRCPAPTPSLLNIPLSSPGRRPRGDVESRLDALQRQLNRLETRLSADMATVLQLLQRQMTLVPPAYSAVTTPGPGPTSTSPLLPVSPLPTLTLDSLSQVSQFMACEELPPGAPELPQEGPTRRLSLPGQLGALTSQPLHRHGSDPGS

[6] = Toxicity in female CB-17 SCID nude mouse xenografted with human TMD8 cells assessed as reduction in lymphocytes at 50 mg/kg, po administered twice daily for 21 days; assay type: organism-based; conditions: in vivo, 504 h, time 21 day
TMD8 [7] = experiment: Cell cycle arrest in human TMD8 cells assessed as accumulation of cells at G0/G1 phase at 100 nM after 48 hrs by propidium iodide staining based flow cytometric analysis (reference value: 32.9%); assay type: functional
[8] = biological target: T1, Tyrosine-protein kinase BTK; experiment: Inhibition of BTK (unknown origin) measured by ADP-Glo assay
TMD8 [9] = experiment: Antiproliferative activity against human TMD8 cells incubated for 72 hrs by CellTiter-Glo assay; conditions: TMD8, 72 h
TMD8 [10] = experiment: Induction of apoptosis in human TMD8 cells assessed as apoptotic cells 100 nM incubated for 72 hrs by AnnexinV-FITC/propidium iodide staining based flow cytometric analysis; assay type: functional
[11] = Mutagenicity in Salmonella typhimurium TA100 at 1.5 to 1000 ug per plate in presence of liver microsomes by AMES test; assay type: toxicity, Salmonella enterica subsp. enterica serovar Typhimurium; conditions: dose 1.5-1000 µg
[12] = Mutagenicity in Salmonella typhimurium TA98 at 1.5 to 1000 ug per plate in presence of liver microsomes by AMES test; assay type: toxicity, Salmonella enterica subsp. enterica serovar Typhimurium; conditions: dose 1.5-1000 µg
[13] = Tmax in male BALB/c mouse at 10 mg/kg, po; assay type: ADME, organism-based; conditions: in vivo
TMD8 [14] = experiment: Antitumor activity against human TMD8 cells xenografted in female CB-17 SCID nude mouse assessed as tumor suppression at 12.5 to 25 mg/kg, po administered twice daily for 21 days; assay type: functional, organism-based; conditions: dose 12.5-25 mg/kg, time 21.0 day
Ramos = experiment: Antiproliferative activity against human Ramos cells incubated for 72 hrs by CellTiter-Glo assay; assay type: functional, cell-based
[15] = biological target: Epidermal growth factor receptor (Homo sapiens) (UniProt P00533); experiment: Inhibition of EGFR (unknown origin) assessed as residual percent of control at 1 uM measured by DiscoverX kinome scan assay relative to control
Sequence of Epidermal growth factor receptor (Homo sapiens) (P00533 whole entry): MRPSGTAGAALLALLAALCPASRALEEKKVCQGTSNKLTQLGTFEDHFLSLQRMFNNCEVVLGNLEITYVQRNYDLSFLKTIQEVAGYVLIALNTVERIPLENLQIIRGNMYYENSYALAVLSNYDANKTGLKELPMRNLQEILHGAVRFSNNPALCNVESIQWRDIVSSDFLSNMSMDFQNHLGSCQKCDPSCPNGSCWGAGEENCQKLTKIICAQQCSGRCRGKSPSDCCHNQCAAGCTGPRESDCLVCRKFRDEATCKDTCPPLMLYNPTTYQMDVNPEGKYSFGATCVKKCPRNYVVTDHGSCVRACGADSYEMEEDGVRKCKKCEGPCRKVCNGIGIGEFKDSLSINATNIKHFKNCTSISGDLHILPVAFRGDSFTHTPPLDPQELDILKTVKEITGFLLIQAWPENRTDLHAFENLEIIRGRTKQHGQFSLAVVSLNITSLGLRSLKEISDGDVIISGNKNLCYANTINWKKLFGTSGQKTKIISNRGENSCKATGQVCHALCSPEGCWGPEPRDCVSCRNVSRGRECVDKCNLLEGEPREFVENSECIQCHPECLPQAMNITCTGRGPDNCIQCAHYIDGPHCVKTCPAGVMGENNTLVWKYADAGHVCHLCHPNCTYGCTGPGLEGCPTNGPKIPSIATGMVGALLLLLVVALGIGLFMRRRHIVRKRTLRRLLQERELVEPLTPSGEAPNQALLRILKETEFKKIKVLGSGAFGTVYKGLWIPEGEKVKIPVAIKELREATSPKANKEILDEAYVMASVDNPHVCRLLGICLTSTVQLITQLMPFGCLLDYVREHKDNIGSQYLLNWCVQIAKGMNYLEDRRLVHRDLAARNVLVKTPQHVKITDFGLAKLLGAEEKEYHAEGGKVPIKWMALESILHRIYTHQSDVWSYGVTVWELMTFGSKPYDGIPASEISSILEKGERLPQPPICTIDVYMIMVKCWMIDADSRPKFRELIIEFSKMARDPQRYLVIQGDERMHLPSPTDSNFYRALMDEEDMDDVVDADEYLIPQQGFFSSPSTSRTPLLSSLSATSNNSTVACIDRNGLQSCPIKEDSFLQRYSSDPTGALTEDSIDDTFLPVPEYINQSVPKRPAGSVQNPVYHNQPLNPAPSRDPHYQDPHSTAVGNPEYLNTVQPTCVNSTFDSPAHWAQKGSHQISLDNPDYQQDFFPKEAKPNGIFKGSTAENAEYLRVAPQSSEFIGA

SU-DHL-6 = experiment: Antiproliferative activity against human SU-DHL-6 cells incubated for 72 hrs by CellTiter-Glo assay; assay type: functional, cell-based; conditions: SU-DHL-6, 72 h
TMD8 [16] = experiment: In vivo inhibition of BTK in female CB-17 SCID nude mouse xenografted with human TMD8 cells assessed as reduction in p-BTK (Tyr223) expression at 12.5 to 50 mg/kg, po administered twice daily for 21 days; assay type: functional, organism-based; conditions: dose 12.5-50 mg/kg, time 21.0 day
OCI-Ly3 = experiment: Antiproliferative activity against human OCILY3 cells incubated for 72 hrs by CellTiter-Glo assay; assay type: functional, cell-based; conditions: OCI-Ly3, 72 h
Pfeiffer = experiment: Antiproliferative activity against human Pfeiffer cells incubated for 72 hrs by CellTiter-Glo assay; assay type: functional, cell-based
TMD8 [17] = experiment: Induction of apoptosis in human TMD8 cells assessed as apoptotic cells 10 nM incubated for 72 hrs by AnnexinV-FITC/propidium iodide staining based flow cytometric analysis; assay type: functional
[18] = Oral bioavailability in male BALB/c mouse; assay type: ADME, organism-based; conditions: in vivo
[19] = Apparent volume of distribution in male BALB/c mouse at 2 mg/kg, iv; assay type: ADME, organism-based; conditions: in vivo, read-out: Vz
[20] = Toxicity in female CB-17 SCID nude mouse xenografted with human TMD8 cells assessed as reduction in white blood cells at 50 mg/kg, po administered twice daily for 21 days; assay type: organism-based; conditions: in vivo, 504 h, time 21 day
TMD8 [21] = experiment: Cell cycle arrest in human TMD8 cells assessed as accumulation of cells at G2 phase at 100 nM after 48 hrs by propidium iodide staining based flow cytometric analysis (reference value: 13.4%); assay type: functional
[22] = biological target: T1, Tyrosine-protein kinase BTK; experiment: Inhibition of BTK in human TMD8 cells assessed as inhibition of BTK autophosphorylation at Tyr223 measured by Western blot analysis; assay type: cell-based
[23] = biological target: Receptor tyrosine-protein kinase erbB-4 (Homo sapiens) (UniProt Q15303); experiment: Inhibition of ERBB4 (unknown origin) assessed as residual percent of control at 1 uM measured by DiscoverX kinome scan assay relative to control
Sequence of Receptor tyrosine-protein kinase erbB-4 (Homo sapiens) (Q15303 whole entry): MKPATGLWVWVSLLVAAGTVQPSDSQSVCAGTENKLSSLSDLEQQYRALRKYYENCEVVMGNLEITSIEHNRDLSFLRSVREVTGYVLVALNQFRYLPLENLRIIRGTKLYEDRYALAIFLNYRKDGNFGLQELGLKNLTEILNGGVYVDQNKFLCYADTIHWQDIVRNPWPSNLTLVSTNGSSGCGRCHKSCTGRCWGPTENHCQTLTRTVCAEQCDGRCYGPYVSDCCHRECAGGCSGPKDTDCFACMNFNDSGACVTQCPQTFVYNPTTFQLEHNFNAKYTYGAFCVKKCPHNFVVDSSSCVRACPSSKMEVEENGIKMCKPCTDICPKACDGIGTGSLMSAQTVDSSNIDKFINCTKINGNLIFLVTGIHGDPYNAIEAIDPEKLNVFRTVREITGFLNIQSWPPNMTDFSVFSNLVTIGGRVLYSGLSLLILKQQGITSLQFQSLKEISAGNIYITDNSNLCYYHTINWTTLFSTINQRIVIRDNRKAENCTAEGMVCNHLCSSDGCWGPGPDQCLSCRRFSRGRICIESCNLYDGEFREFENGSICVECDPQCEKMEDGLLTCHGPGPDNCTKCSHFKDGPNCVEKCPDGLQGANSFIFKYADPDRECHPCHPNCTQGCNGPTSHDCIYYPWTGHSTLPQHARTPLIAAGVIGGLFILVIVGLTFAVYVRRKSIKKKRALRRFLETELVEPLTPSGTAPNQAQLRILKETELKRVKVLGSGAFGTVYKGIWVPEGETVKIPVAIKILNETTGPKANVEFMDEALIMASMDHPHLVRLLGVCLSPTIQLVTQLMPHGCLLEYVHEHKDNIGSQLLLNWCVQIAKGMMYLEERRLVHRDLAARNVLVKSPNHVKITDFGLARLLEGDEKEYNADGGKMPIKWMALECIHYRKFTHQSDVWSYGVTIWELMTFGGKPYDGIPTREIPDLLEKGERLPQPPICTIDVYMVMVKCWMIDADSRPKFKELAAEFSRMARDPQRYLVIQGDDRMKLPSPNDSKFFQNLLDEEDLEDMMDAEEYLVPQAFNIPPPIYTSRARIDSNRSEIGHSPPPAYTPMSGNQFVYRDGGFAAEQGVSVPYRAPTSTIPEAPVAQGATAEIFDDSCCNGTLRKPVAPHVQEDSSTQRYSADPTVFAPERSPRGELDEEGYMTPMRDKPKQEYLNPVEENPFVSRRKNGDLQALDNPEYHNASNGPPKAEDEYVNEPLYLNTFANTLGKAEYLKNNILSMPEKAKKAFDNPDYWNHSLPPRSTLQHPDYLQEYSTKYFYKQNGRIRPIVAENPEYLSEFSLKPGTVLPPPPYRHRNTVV

[24] = Antiproliferative activity against human MINO cells incubated for 72 hrs by CellTiter-Glo assay; assay type: functional, cell-based
[25] = Mutagenicity in Salmonella typhimurium TA1535 at 1.5 to 1000 ug per plate by AMES test; assay type: toxicity, Salmonella enterica subsp. enterica serovar Typhimurium; conditions: dose 1.5-1000 µg

Activity [1]: 0.05%
IC50 [8]: 0.0007 µM
Tmax [13]: 23.4 min
IC50 (Ramos): > 10 µM
Activity [15]: 44%
IC50 (SU-DHL-6): > 10 µM
IC50 (OCI-Ly3): > 10 µM
bioavailability [18]: 41%
Vd [19]: 2.79 L/kg
IC50 [22]: 0.00149 µM
Activity [23]: 0.55%
Structure (SMILES): C=CC(=O)N1CC=C(c2c[nH]c3ncnc(-c4ccc(CNC(=O)c5ccccc5)c(F)c4)c23)CC1
Activity [2]: Non-Toxic
Activity (TMD8 [3]): 31.4%
Activity (TMD8 [4]): 26.4%
IC50 (DOHH-2): 5.26 µM
IC50 [5]: 4.38 µM
Activity [6]: Toxic
Activity (TMD8 [7]): 63%
IC50 (TMD8 [9]): 0.0026 µM
Activity (TMD8 [10]): 25.2%
Activity [11]: Non-Toxic
Activity [12]: Non-Toxic
Activity (TMD8 [14]): Active
Activity (TMD8 [16]): Active
IC50 (Pfeiffer): > 10 µM
Activity (TMD8 [17]): 19%
Activity [20]: Toxic
Activity (TMD8 [21]): 6.4%
IC50 [24]: > 10 µM
Activity [25]: Non-Toxic
